Test results from ChEMBL document CHEMBL3886392, “Substituted imidazopyrazines” (2015).
pIC50: −log10 of the molar value.

Biological target: T1, Dual specificity protein kinase TTK (Homo sapiens, UniProt P33981)
T1 sequence (P33981 whole entry): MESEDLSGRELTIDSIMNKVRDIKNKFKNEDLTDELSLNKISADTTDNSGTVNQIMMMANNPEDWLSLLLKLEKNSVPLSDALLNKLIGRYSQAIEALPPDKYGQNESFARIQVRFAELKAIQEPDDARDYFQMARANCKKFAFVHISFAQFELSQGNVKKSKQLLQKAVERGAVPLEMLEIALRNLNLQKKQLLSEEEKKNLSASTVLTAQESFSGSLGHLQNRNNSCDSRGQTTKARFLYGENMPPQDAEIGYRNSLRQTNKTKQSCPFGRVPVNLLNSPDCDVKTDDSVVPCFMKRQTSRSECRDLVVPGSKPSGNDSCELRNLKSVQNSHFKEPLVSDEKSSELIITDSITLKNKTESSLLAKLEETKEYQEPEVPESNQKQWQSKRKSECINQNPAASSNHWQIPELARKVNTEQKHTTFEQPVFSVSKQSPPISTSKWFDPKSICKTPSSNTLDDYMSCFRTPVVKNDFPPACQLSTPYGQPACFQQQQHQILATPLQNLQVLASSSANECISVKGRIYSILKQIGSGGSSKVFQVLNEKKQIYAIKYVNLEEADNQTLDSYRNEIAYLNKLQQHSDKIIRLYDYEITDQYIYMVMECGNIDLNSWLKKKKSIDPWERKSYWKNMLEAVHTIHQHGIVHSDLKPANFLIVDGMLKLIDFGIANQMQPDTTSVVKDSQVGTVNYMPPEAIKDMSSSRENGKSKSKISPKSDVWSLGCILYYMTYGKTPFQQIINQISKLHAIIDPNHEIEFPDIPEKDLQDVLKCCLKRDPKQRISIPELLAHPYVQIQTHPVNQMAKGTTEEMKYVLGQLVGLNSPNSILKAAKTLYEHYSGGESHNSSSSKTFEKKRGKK

- pIC50: 7.44
Compound: C#Cc1cn2c(-c3ccc(C(=O)NC4C[C@@H]4F)c(C)c3)cnc2c(NCCC(F)(F)F)n1 (stereo in doubt)
